Data set [1] deals with gBRCA-mutated advanced ovarian cancer. As to conditions: Phase II trials, cited from earlier work.
A further data set relates to ovarian cancer. The experiment in a line: Treatment outcome on olaparib (case series). The data set is classed as in vivo, human. The method, then: (§1) A formal assessment of folic acid level along with a chart review of olaparib treated ovarian cancer patients was conducted to determine the frequency of severe folic acid deficiency in this population and the impact of replacement therapy on outcome. This was an IRB-approved study performed at Rush University Medical Center from Dec. 1, 2016 to Apr. 3, 2017. Data collection was conducted in accordance with good clinical practice guidelines and the provisions of declaration of Helsinki. Data collected included cancer history, date of initiation of olaparib, duration of olaparib use, CBC data, peripheral smear/RBC morphology data, Vitamin B12, folic acid levels, iron studies with ferritin, reticulocyte count, LDH levels, haptoglobin levels, TSH levels, any treatment administered for hematological toxicities including nutritional supplementation or blood product transfusion, dose reductions or cessation of olaparib use and indication for such intervention were collected for all patients.

The conditions of data set [2]: cited from earlier work.
Data set [3] is described as follows: Serum folic acid level in olaparib-treated cancer patients (chart review / case series). The data set is classed as in vivo, human. The settings on record: for Folic Acid Level: on olaparib, reference range 7.0-31.4 ng/mL. How it is done: as §1
Data set [4] in a line: Hematologic toxicity (Hgb, MCV, other abnormalities, transfusion, dose reduction) in olaparib-treated patients (chart review / case series). The settings on record: for Transfusion requirement: secondary to anemia noted after administration of Olaparib; for Transfusion required: secondary to anemia noted while patient receiving olaparib. The data set is classed as in vivo, human. The method, then: as §1

For data set [5] the following is noted: Hellman, 1964; cited from earlier work.
A short description of data set [6]: Response to folic acid supplementation in patients on olaparib. The data set is classed as in vivo, human. The settings on record: for Response to folic acid supplementation: on olaparib. The method, then:
as §1

Where [7] appears, read: Table 3a, patient/age c1 A/62, c2 B/78, c3 C/63, c4 D/57.
Where [8] appears, read: Table 3b, patient/age c1 E, c2 F, c3 G, c4 H.
The mark [9] stands for this setting: Table 1, patient/age c1 A/61, c2 B/78, c3 C/63, c4 D/57.
Where [10] appears, read: Table 2a, patient/age c1 A/61, c2 B/78, c3 C/63, c4 D/57.
The mark [11] stands for this setting: Table 2b, patient/age c1 E, c2 F, c3 G, c4 H.

Several values for one entry are separate records, joined by “and”; a condition that tells them apart may be missing. Identical values can stand only once. Entries after “also recorded” stand apart in the source; their conditions may differ.

Consider `O=C(c1cc(Cc2n[nH]c(=O)c3ccccc23)ccc1F)N1CCN(C(=O)C2CC2)CC1` [olaparib, 4-[(3-[(4-cyclopropylcarbonyl)piperazin-4-yl]carbonyl)-4-fluorophenyl]methyl(2H)-phthalazin-1-one], for which, in data set [1] (advanced ovarian cancer), the progression-free survival result is listed as “significantly prolonged”. In addition, the “overall response rate (ORR)” value in data set [1] (gBRCA-mutated advanced ovarian cancer, three or more previous lines of chemotherapy) was 34%. Further, in the data set on ovarian cancer (setting [7]), the “Treatment outcome: discontinued because of” value is “progression; also recorded: refractory anemia; also recorded: diarrhea”. Besides, the “Treatment outcome: treatment stopped after” value in the data set on ovarian cancer (Table 3b, patient E/73) is listed as “after 20 days”. The “Treatment outcome: discontinued because of / status” value in the data set on ovarian cancer (setting [8]) was “months; ongoing; also recorded: progression”. In data set [2] (Olaparib PI), the “myelodysplastic syndrome/Acute Myeloid Leukemia, olaparib-treated patients” value is 2%. In data set [2] (clinical trials (Olaparib PI)), the “adverse reactions leading to discontinuation of olaparib, patients” value is on record as 9%. Further, the “adverse reactions leading to dose interruptions, patients” value in data set [2] (clinical trials (Olaparib PI)) is listed as 26%. The “adverse reactions leading to dose reductions, patients” value in data set [2] (clinical trials (Olaparib PI)) is 15%. The “folic acid level (severe folic acid deficiency) in three additional patients” value in data set [3] (3 other women, after taking olaparib for at least four weeks) is given as less than 1.6 ng/mL. The molecule also had a folate level in data set [3] (Case report, Patient A on olaparib, Normal: 7-31.4 ng/mL) of less than 1.6 ng/mL. The “folic acid level (severe folic acid deficiency)” value in data set [3] (Patient B on olaparib) is reported as less than 1.6 ng/mL; in data set [3] (Patient C, approximately 4 weeks after starting olaparib) it was less than 1.6 ng/mL. The “folic acid level (severely low)” value in data set [3] (Patient D on olaparib) is 1.6 ng/mL. Besides, the “Folic Acid Level” value in data set [3] (setting [9]) was <1.6 ng/mL and 1.6 ng/mL; in data set [3] (setting [10]), <1.6 ng/mL and 1.6 ng/mL; in data set [3] (setting [11]), 4.9 ng/mL and 5.2 ng/mL and 3.7 ng/mL and 6.2 ng/mL. Besides, the “folate level after initiation of olaparib” value in data set [3] (available laboratory data of the case series) is on record as “drops precipitously within weeks”. Besides, the “patients who developed transfusion-dependent anemia” value in data set [4] (4 cases, in the course of treatment with olaparib) was “Three of the four”. The “hgb (severe anemia)” value in data set [4] (Case report, Patient A, after 5 weeks of olaparib therapy, requiring blood transfusion) amounted to 6.6 g/dL. In addition, the “MCV (macrocytic anemia)” value in data set [4] (Case report, Patient A, at the time of Hematology evaluation) was 110.7 fL. In addition, the “Hgb (macrocytic anemia)” value in data set [4] (Case report, Patient A, at the time of Hematology evaluation, olaparib reduced to 100 mg BID) is reported as 9.0 g/dL. In addition, the “Hgb (acute decrease)” value in data set [4] (Patient B, five weeks after starting olaparib, from 8 g/dL, requiring blood transfusion) is recorded as 6.8 g/dL. Also, the “Hgb (further decrease)” value in data set [4] (Patient C on olaparib, two weeks after start of folic acid 1 mg daily, requiring blood transfusion) is on record as 6.3 g/dL. For the same molecule, in data set [4] (Patient C, approximately 4 weeks after starting olaparib, from 14 g/dL), the “Hgb (drop in baseline)” value was 10 g/dL. The “Hgb (mild anemia)” value in data set [4] (Patient D, while on olaparib for 6 months) was in the range of 9 to 10 g/dL. In addition, the “Dose Reduction or Delay of Olaparib/Cause” value was “anemia” in data set [4] (Table 1, patient/age c1 A/61, c2 B/78, c3 C/63, c4 D/57, cause of dose change); “Yes/ and No” in data set [4] (Table 1, patient/age c1 A/61, c2 B/78, c3 C/63, c4 D/57, dose reduced or delayed); “Yes, anemia and Yes, and No and anemia” in data set [4] (setting [10]); “No and Yes, neutropenia, and Yes, folic acid and anemia, fatigue, and dyspnea” in data set [4] (setting [11]); “Yes/anemia and No” in data set [4] (setting [7]); “No and No^k and Yes/rash” in data set [4] (Table 3b, patient/age c1 E, c2 F (reduced dose 200 mg once per day from the onset), c3 G/52, c4 H/35). In addition, the “Other Hematologic Abnormalities” value is “Leukopenia and None and Thrombo-” in data set [4] (Table 1, patient/age c1 A/61, c2 B/78, c3 C/63, c4 D/57, noted at time of initial Hematology assessment); “Leukopenia; and None and Thrombo-” in data set [4] (Table 2a, patient/age c1 A/61, c2 B/78, c3 C/63, c4 D/57, noted at time of initial Hematology assessment); “Leukopenia;; also recorded: Leukopenia; also recorded: Thrombocytopenia” in data set [4] (Table 2b, patient/age c1 E, c2 F, c3 G, c4 H, noted at time of initial Hematology assessment); “Thrombo- and Leukopenia; and None” in data set [4] (Table 3a, patient/age c1 A/62, c2 B/78, c3 C/63, c4 D/57, noted at time of initial hematologic assessment); “Leukopenia; and None and Thrombo-” in data set [4] (Table 3b, patient/age c1 E, c2 F, c3 G, c4 H, noted at time of initial hematologic assessment). In addition, the “Hgb Nadir” value was 6.6 g⁻¹ dL⁻¹ and 6.3 g⁻¹ dL⁻¹ and 8.8 g⁻¹ dL⁻¹ in data set [4] (Table 1, patient/age c1 A/61, c2 B/78, c3 C/63, c4 D/57, on olaparib, reference range 12.0-16.0 g/dL); 6.6 g⁻¹ dL⁻¹ and 6.3 g⁻¹ dL⁻¹ and 8.8 g⁻¹ dL⁻¹ in data set [4] (Table 2a, patient/age c1 A/61, c2 B/78, c3 C/63, c4 D/57, on olaparib, reference range 12.0-16.0 g/dL); 6.6 g⁻¹ dL⁻¹ and 6.3 g⁻¹ dL⁻¹ and 8.8 g⁻¹ dL⁻¹ in data set [4] (Table 3a, patient/age c1 A/62, c2 B/78, c3 C/63, c4 D/57, lowest value documented while receiving olaparib, reference range 12.0 to 16.0 g/dL); 10.8 g⁻¹ dL⁻¹ and 8.1 g⁻¹ dL⁻¹ and 12.2 g⁻¹ dL⁻¹ and 10.4 g⁻¹ dL⁻¹ in data set [4] (Table 3b, patient/age c1 E, c2 F (200 mg once per day), c3 G, c4 H (metastatic breast cancer), lowest value while receiving olaparib, reference range 12.0 to 16.0 g/dL). The “MCV Nadir” value is 110.7 fL and 102.0 fL and 91.6* fL and 98.1 fL in data set [4] (Table 1, patient/age c1 A/61, c2 B/78, c3 C/63, c4 D/57, on olaparib, reference range 82.0-103.0 fL); 110.7 fL and 102.0 fL and 91.6* fL and 98.1 fL in data set [4] (Table 2a, patient/age c1 A/61, c2 B/78, c3 C/63, c4 D/57, on olaparib, reference range 82.0-103.0 fL); 112.0 fL and 115.8 fL and 93.2 fL and 98.9 fL in data set [4] (Table 2b, patient/age c1 E, c2 F, c3 G, c4 H, on olaparib, reference range 82.0-103.0 fL); 110.7 fL and 102.0 fL and 91.6 fL and 98.1 fL in data set [4] (Table 3a, patient/age c1 A/62, c2 B/78, c3 C/63, c4 D/57, while receiving olaparib, reference range 82.0 to 103.0 fL); 105.6 fL and 103.1 fL and 93.5 fL and 85.8 fL in data set [4] (Table 3b, patient/age c1 E, c2 F, c3 G, c4 H, while receiving olaparib, reference range 82.0 to 103.0 fL). Besides, the Transfusion requirement entry in data set [4] (setting [9]) was “Yes and No”; in data set [4] (setting [10]), “Yes and No”; in data set [4] (setting [11]) it was “No and Yes”. Also, the Transfusion required entry in data set [4] (setting [7]) is “Yes and No”; in data set [4] (setting [8]), “No”.
Regarding `CN(Cc1cnc2nc(N)nc(N)c2n1)c1ccc(C(=O)N[C@@H](CCC(=O)O)C(=O)O)cc1` [Methotrexate], the serum folate level entry in data set [5] is “variably decreased”.
With `Nc1nc2ncc(CNc3ccc(C(=O)N[C@@H](CCC(=O)O)C(=O)O)cc3)nc2c(=O)[nH]1` [folic acid], the “anemia and macrocytosis after folic acid supplementation” value in data set [6] (Patient A on olaparib, oral folic acid 1 mg daily) was “improved”. In addition, the “Hgb after folic acid supplementation” value in data set [6] (Patient B, two weeks after starting folic acid 1 mg daily, no longer required blood transfusions) was “markedly improved”. Also, the “folic acid level after supplementation” value in data set [6] (Patient C on olaparib, two weeks of folic acid 1 mg daily, minimally increased from prior value) is on record as 2.9 ng/mL; in data set [6] (Patient C, folic acid supplementation increased to 2 mg TID), “normalized”; in data set [6] (Patient D on olaparib, folic acid 1 mg daily), “subsequent improvement”. Further, the “Hgb stabilized after supplementation” value in data set [6] (Patient C, folic acid supplementation increased to 2 mg TID, olaparib briefly held) is “around 9 g/dL”. The “Response to folic acid supplementation” value is “Yes” in data set [6] (Table 1, patient/age c1 A/61, c2 B/78, c3 C/63, c4 D/57, improvement of folic acid level to within the reference range (≥7.0 ng/mL)); “Yes and No” in data set [6] (Table 2a, patient/age c1 A/61, c2 B/78, c3 C/63, c4 D/57, improvement of folic acid level to within the reference range (≥7.0 ng/mL)); “Yes” in data set [6] (Table 2b, patient/age c1 E, c2 F, c3 G, c4 H, improvement of folic acid level to within the reference range (≥7.0 ng/mL)); “Yes” in data set [6] (Table 3a, patient/age c1 A/62, c2 B/78, c3 C/63, c4 D/57, improvement of folic acid level to within reference range); “Yes” in data set [6] (Table 3b, patient/age c2, improvement of folic acid level to within reference range). In data set [6] (folic acid supplementation at variable doses), the “correction of olaparib-induced folic acid deficiency” value is “can correct”.

These data come from patent US20210236487A1, “Methods and Compositions for Treatment of Cancer with PARP Inhibitors” (Rush University Medical Center, priority 2018, published 2021).
